Results published in PubChem BioAssay AID602255 (Broad Institute, 2012).
Calls of active or inactive are those of the source.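 How the source made its calls: active means falling polarization with an AC50 at most ten times the sample's highest valid dose; inconclusive means flat curve at 30 to 70% inhibition, or poor fit; inactive means rising signal, flat weak curves, or AC50 past limit.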

Target: Golgi-associated PDZ and coiled-coil motif-containing protein (Homo sapiens) (UniProt Q9HD26)
Experiment: CAL PDZ domain peptide-binding inhibitors, dose response, biochemical, fluorescence polarization, untagged CAL PDZ, dry powder (AID 602255)
Conditions: CAL PDZ / TMR peptide fluorescence polarization, 1 h; for activity change, negative = inhibition: at 35 µM (top of the series)

SMILES | AC50 | activity change, negative = inhibition
O=C(O)CSc1cc(NS(=O)(=O)c2ccc(Br)cc2)c2ccccc2c1O | > 35 µM (inactive) | –
O=S(=O)(Nc1cc(Sc2ccccc2)c(O)c2ccccc12)c1ccc(Cl)cc1 | – | inactive
COc1ccc(S(=O)(=O)Nc2cc(SCC(=O)O)c(O)c3ccccc23)cc1 | – | inactive
O=S(=O)(Nc1ccc(O)c2ccccc12)c1ccccc1 | – | inactive
